Test results reported in patent US11834454B2, “Alkynylphenylbenzamide compounds and applications thereof” (SHENZHEN NEWDEL BIOTECH CO., LTD., priority 2021, dated 2023).

Key:
TRKA = target: T1, TRKA (Homo sapiens, UniProt P04629); assay: Z'-LYTE kinase activity detection, TRKA; assay type: biochemical
T1 construct: purchased American Life Technologies PV3144

TRKB = target: T2, TRKB (Homo sapiens, UniProt Q16620); assay: Z'-LYTE kinase activity detection, TRKB; assay type: biochemical
T2 construct: purchased American Life Technologies PV3616

TRKC = target: T3, TRKC (Homo sapiens, UniProt Q16288); assay: Z'-LYTE kinase activity detection, TRKC; assay type: biochemical
T3 construct: purchased American Life Technologies PV3617

BaF3-CD74-NTRK1 = target: T4, BaF3-CD74-NTRK1 (Homo sapiens, UniProt P04629); assay: Cell proliferation inhibition, Ba/F3-TRKs stable strain (CCK-8); assay type: cell-based, mouse; settings: 72 hours, read-out: cell viability IC50 CD74-NTRK1
T4 construct: fused on or other part: P04233 (HLA class II histocompatibility antigen gamma chain)
From the text: (§1) The BaF3 cells (mouse pre-B cells) used in this experiment were purchased from the Japanese Cell Bank. All of the monoclonal stable strains, BaF3-CD74-NTRK1, BaF3-ETV6-NTRK2 and BaF3-ETV6-NTRK3 were constructed by our laboratory, and were identified by experiments such as positive control, protein expression and gene sequencing.
(§2) The brief steps of stable strain construction were as follows: constructed pCDNA3.1(+) plasmid vector carrying genes such as CD74-NTRK1, ETV6-NTRK2, ETV6-NTRK3; the plasmid was electroporated into Ba/F3 cells using Amaxa® Cell Line Nucleofector® Kit V; 48 hours after electroporation, geneticin (G418) with a final concentration of 1000 μg/mL was added to screen for two weeks, and the interleukin 3 (IL3) was removed to continue screening to obtain polyclonal stable strains; and then single clones were selected by limiting dilution method; the stable strains were then identified by the positive drugs, Western Blot (WB), and gene sequencing; the correct monoclonal through identification can be used to study the cell proliferation inhibitory activity of the inhibitors.
(§3) Cell proliferation inhibitory activity study: The cells in logarithmic growth phase were seeded into 96-well plates at 8000-12000 cells/well, and the inhibitors at different concentrations of (0-10 μM) were added the next day, and the culture was continued for 72 hours; then 10 μL of Cell Counting Kit-8 Cell Counting Reagent (CCK-8 Reagent) was added to each well, and continued to incubate for 1-3 hours; then its absorbance at 450 nm and 650 nm were measured with a super microplate reader. The median inhibitory concentration (IC50) was calculated using medical graphing software (GraphPad Prism 8.0.0).

BaF3-ETV6-NTRK2 = target: T5, BaF3-ETV6-NTRK2 (Homo sapiens, UniProt Q16620); assay: as above; assay type: cell-based, mouse; settings: 72 hours, read-out: cell viability IC50 ETV6-NTRK2
T5 construct: fused on or other part: P41212 (Transcription factor ETV6)
From the text: as §1, §2, §3

BaF3-ETV6-NTRK3 = target: T6, BaF3-ETV6-NTRK3 (Homo sapiens, UniProt Q16288); assay: as above; assay type: cell-based, mouse; settings: 72 hours, read-out: cell viability IC50 ETV6-NTRK3
T6 construct: fused on or other part: P41212 (Transcription factor ETV6)
From the text: as §1, §2, §3

T3 sequence (Q16288 32-839): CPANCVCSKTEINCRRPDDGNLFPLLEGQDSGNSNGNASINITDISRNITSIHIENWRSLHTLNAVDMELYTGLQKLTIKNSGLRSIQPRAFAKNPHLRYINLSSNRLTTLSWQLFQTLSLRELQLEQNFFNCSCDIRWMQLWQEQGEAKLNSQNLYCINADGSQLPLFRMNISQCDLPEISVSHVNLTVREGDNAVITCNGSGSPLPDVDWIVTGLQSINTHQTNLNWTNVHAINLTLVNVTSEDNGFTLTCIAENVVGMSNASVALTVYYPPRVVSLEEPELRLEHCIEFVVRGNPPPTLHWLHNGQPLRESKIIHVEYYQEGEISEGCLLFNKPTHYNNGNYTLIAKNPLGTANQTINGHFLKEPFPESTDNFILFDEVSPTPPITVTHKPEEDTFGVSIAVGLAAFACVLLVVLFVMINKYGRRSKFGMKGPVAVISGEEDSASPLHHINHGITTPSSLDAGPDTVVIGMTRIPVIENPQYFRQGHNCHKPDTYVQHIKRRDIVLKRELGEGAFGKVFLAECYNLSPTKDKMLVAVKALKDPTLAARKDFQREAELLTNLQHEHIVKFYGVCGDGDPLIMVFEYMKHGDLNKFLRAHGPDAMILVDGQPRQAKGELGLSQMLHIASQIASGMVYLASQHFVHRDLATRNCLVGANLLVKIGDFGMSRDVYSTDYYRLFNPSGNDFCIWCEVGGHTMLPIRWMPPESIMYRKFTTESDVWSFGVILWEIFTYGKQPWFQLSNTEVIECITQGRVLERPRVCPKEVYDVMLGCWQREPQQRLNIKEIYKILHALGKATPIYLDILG
T2 sequence (Q16620 32-822): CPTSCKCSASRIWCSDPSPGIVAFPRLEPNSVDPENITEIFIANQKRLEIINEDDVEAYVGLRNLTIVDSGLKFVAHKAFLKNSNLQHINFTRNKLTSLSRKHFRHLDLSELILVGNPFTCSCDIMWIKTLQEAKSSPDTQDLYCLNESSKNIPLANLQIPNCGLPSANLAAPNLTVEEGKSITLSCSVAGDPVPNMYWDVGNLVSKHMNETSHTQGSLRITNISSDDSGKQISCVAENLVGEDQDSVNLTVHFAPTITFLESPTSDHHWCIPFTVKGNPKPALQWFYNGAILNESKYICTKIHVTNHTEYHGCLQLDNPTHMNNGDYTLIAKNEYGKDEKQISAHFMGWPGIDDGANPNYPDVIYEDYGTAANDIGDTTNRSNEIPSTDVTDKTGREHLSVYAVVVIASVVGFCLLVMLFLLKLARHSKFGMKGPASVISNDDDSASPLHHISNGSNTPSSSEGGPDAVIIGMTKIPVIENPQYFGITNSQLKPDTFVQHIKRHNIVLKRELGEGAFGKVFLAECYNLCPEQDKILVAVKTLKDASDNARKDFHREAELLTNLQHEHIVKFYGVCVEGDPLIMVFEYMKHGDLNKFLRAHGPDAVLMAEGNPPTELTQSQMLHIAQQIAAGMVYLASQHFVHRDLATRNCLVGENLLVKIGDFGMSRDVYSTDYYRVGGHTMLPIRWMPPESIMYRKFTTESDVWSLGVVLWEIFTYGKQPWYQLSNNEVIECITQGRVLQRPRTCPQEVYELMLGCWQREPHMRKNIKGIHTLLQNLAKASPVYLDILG
T4 sequence (P04629 510-796 limits assumed): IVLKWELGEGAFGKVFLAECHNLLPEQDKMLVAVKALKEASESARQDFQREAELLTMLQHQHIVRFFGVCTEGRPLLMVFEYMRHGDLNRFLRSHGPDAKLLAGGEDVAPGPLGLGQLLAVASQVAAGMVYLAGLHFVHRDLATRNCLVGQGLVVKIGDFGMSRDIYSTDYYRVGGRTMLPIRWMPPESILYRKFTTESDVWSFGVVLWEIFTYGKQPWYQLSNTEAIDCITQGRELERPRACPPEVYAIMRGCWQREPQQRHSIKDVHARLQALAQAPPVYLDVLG
T6 sequence (Q16288 whole entry, the tested form may be a part): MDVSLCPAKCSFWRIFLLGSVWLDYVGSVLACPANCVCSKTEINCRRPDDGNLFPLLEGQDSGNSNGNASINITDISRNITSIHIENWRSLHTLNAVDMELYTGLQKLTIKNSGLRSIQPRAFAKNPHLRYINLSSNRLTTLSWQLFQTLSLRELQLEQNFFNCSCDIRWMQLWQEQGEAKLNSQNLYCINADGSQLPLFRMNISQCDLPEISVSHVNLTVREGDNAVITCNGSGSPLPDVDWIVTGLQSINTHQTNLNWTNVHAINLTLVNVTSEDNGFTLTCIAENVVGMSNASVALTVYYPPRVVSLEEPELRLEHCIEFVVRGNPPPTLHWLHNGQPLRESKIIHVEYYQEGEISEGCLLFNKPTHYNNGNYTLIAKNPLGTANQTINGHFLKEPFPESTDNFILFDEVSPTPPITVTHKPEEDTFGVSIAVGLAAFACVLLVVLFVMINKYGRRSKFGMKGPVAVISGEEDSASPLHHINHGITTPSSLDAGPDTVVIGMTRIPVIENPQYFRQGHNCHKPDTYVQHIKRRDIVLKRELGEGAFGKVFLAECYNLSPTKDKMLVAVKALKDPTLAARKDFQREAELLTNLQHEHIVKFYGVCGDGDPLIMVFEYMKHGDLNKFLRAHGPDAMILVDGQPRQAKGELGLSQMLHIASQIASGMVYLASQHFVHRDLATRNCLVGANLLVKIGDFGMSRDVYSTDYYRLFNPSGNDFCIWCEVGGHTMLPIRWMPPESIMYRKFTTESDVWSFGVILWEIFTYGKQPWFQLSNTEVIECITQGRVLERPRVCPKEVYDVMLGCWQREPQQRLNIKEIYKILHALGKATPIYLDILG
T5 sequence (Q16620 538-822 limits assumed): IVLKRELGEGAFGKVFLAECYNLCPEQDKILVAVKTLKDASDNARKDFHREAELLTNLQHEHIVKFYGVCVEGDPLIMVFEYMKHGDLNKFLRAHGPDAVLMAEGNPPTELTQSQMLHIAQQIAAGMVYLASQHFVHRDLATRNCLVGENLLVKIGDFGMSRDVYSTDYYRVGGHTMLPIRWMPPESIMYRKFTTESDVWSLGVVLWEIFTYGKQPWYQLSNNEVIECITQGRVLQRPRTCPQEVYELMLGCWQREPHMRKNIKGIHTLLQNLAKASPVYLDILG
T1 sequence (P04629 33-796): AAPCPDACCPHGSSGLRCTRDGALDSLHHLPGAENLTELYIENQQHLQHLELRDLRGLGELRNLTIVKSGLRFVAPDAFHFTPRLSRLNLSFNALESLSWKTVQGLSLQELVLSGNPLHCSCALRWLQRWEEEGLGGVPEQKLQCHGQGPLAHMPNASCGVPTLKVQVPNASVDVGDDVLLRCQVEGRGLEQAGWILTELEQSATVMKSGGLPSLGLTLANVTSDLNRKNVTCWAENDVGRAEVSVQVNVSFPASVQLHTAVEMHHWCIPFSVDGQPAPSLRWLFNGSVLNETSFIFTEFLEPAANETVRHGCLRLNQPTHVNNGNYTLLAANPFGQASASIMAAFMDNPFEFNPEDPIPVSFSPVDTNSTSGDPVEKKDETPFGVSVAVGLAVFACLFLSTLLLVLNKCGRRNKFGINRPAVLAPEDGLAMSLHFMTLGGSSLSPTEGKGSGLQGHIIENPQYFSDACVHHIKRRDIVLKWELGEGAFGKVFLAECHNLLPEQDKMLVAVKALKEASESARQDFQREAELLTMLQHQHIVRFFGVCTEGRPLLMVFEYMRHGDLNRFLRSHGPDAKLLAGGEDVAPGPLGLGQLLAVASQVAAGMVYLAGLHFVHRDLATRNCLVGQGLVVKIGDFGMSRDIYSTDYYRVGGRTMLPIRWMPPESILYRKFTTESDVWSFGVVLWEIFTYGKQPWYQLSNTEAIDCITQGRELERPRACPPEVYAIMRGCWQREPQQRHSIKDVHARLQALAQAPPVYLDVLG

Compound `Cc1c(C#Cc2cnc3ccc(N4CCOCC4)nn23)cccc1C(=O)Nc1cc([N+](=O)[O-])cc(C(F)(F)F)c1` [XS4-77] has an IC50 (TRKA) of 10 to 100 nM, an IC50 (TRKB) of 10 to 100 nM and an IC50 (TRKC) of 10 to 100 nM. The IC50 (BaF3-CD74-NTRK1) was 10 to 100 nM, the IC50 (BaF3-ETV6-NTRK2) was 10 to 100 nM and the IC50 (BaF3-ETV6-NTRK3) was < 10 nM.
For `Cc1c(C#Cc2cnc3ccc(N4CCOCC4)nn23)cccc1C(=O)Nc1cccc(C(F)(F)F)c1` [XS3-23, 2-METHYL-3-((6-MORPHOLINIMIDAZO[1,2-B]PYRIDAZIN-3-YL)ETHYNYL)-N-(3-(TRIFLUOROMETHYL)BENZENE BASE) BENZAMIDE], the IC50 (TRKA) was 10 to 100 nM, the IC50 (TRKB) was 10 to 100 nM and the IC50 (TRKC) was 10 to 100 nM. For the same compound, the IC50 (BaF3-CD74-NTRK1) was 10 to 100 nM, the IC50 (BaF3-ETV6-NTRK2) was 10 to 100 nM and the IC50 (BaF3-ETV6-NTRK3) was 10 to 100 nM.
`Cc1cn(-c2cc(NC(=O)c3cccc(C#Cc4cnc5ccc(N6CCOCC6)nn45)c3C)cc(C(F)(F)F)c2)cn1` [XS3-91] was tested, and the IC50 (TRKA) was < 10 nM, the IC50 (TRKB) was < 10 nM and the IC50 (TRKC) was < 10 nM. The IC50 (BaF3-CD74-NTRK1) was 10 to 100 nM, the IC50 (BaF3-ETV6-NTRK2) was 10 to 100 nM and the IC50 (BaF3-ETV6-NTRK3) was < 10 nM.
With `Cc1c(C#Cc2cnc3ccc(N4CCN(C)CC4)nn23)cccc1C(=O)Nc1cc(Cl)cc(C(F)(F)F)c1` [XS3-51, N-(3-CHLORO-5-(TRIFLUOROMETHYL)PHENYL)-2-METHYL-3-((6-(4-METHYLPIPERAZIN-1-YL)IMIDAZO[1,2-B]PYRIDAZIN-3-YL)ETHYNYL)BENZAMIDE] the IC50 (TRKA) was 10 to 100 nM, the IC50 (TRKB) was 10 to 100 nM and the IC50 (TRKC) was < 10 nM. For the same compound, the IC50 (BaF3-CD74-NTRK1) was 100 to 1000 nM, the IC50 (BaF3-ETV6-NTRK2) was 100 to 1000 nM and the IC50 (BaF3-ETV6-NTRK3) was 10 to 100 nM.
With `Cc1c(C#Cc2cnc3ccc(N4CC[C@H](O)C4)nn23)cccc1C(=O)Nc1cc(CN2CCN(C)CC2)cc(C(F)(F)F)c1` [XS3-36, (S)-3-((6-(3-HYDROXYPYRROLIDIN-1-YL)IMIDAZO[1,2-B]PYRIDAZIN-3-YL)ETHYNYL)-2-METHYL-N-(3-((4-METHYLPIPERAZIN-1-YL)METHYL)-5-(TRIFLUOROMETHYL)PHENYL)BENZAMIDE] the IC50 (TRKA) was 10 to 100 nM, the IC50 (TRKB) was 10 to 100 nM and the IC50 (TRKC) was < 10 nM. For the same compound, the IC50 (BaF3-CD74-NTRK1) was 10 to 100 nM, the IC50 (BaF3-ETV6-NTRK2) was 10 to 100 nM and the IC50 (BaF3-ETV6-NTRK3) was 10 to 100 nM.
For `Cc1c(C#Cc2cnc3ccc(NCCN4CCOCC4)nn23)cccc1C(=O)Nc1cc(Cl)cc(C(F)(F)F)c1` [XS3-53, N-(3-CHLORO-5-(TRIFLUOROMETHYL)PHENYL)-2-METHYL-3-((6-((2-MORPHOLINOETHYL)AMINO)IMIDAZO[1,2-B]PYRIDAZIN-3-YL)ETHYNYL)BENZAMIDE], the IC50 (TRKA) was < 10 nM, the IC50 (TRKB) was 10 to 100 nM and the IC50 (TRKC) was < 10 nM. The IC50 (BaF3-CD74-NTRK1) was 10 to 100 nM, the IC50 (BaF3-ETV6-NTRK2) was 100 to 1000 nM and the IC50 (BaF3-ETV6-NTRK3) was 10 to 100 nM.
For `COc1cc(NC(=O)c2cccc(C#Cc3cnc4ccc(N5CCOCC5)nn34)c2C)cc(C(F)(F)F)c1` [XS4-72], the IC50 (TRKA) was 10 to 100 nM, the IC50 (TRKB) was 10 to 100 nM and the IC50 (TRKC) was 10 to 100 nM. For the same compound, the IC50 (BaF3-CD74-NTRK1) was 10 to 100 nM, the IC50 (BaF3-ETV6-NTRK2) was 10 to 100 nM and the IC50 (BaF3-ETV6-NTRK3) was < 10 nM.
With `Cc1c(C#Cc2cnc3ccc(N4CCC(C)(O)CC4)nn23)cccc1C(=O)Nc1cc(Cl)cc(C(F)(F)F)c1` [XS3-153, N-(3-CHLORO-5-(TRIFLUOROMETHYL)PHENYL)-3-(6-(4-HYDROXY-4-METHYLPIPERIDIN-1-YL)IMIDAZO[1,2-B]PYRIDAZIN-3-YL)ETHYNYL)-2-METHYLBENZAMIDE] the IC50 (TRKA) was 10 to 100 nM, the IC50 (TRKB) was 10 to 100 nM and the IC50 (TRKC) was 10 to 100 nM. For the same compound, the IC50 (BaF3-CD74-NTRK1) was 10 to 100 nM, the IC50 (BaF3-ETV6-NTRK2) was 10 to 100 nM and the IC50 (BaF3-ETV6-NTRK3) was 10 to 100 nM.
Compound `Cc1c(C#Cc2cnc3ccc(N4CCOCC4)nn23)cccc1C(=O)Nc1cc(C(F)(F)F)cc(C(F)(F)F)c1` [XS4-76] has an IC50 (TRKA) of 10 to 100 nM, an IC50 (TRKB) of 10 to 100 nM and an IC50 (TRKC) of 10 to 100 nM. The IC50 (BaF3-CD74-NTRK1) was 10 to 100 nM, the IC50 (BaF3-ETV6-NTRK2) was 10 to 100 nM and the IC50 (BaF3-ETV6-NTRK3) was 10 to 100 nM.
For `Cc1c(C#Cc2cnc3ccc(N4CCC(N(C)C)CC4)nn23)cccc1C(=O)Nc1cc(Cl)cc(C(F)(F)F)c1` [XS3-56, N-(3-CHLORO-5-(TRIFLUOROMETHYL)PHENYL)-3-((6-(4-(DIMETHYLAMINO)PIPERIDIN-1-YL)IMIDAZO[1,2-B]PYRIDAZIN-3-YL)ETHYNYL)-2-METHYLBENZAMIDE], the IC50 (TRKA) was 10 to 100 nM, the IC50 (TRKB) was 10 to 100 nM and the IC50 (TRKC) was 10 to 100 nM. The IC50 (BaF3-CD74-NTRK1) was 100 to 1000 nM, the IC50 (BaF3-ETV6-NTRK2) was 100 to 1000 nM and the IC50 (BaF3-ETV6-NTRK3) was 10 to 100 nM.
With `Cc1c(C#Cc2cnc3ncccn23)cccc1C(=O)Nc1cc(CN2CCN(C)CC2)cc(C(F)(F)F)c1` [XS2-161] the IC50 (TRKA) was 100 to 1000 nM, the IC50 (TRKB) was > 1000 nM and the IC50 (TRKC) was 100 to 1000 nM. The IC50 (BaF3-CD74-NTRK1) was > 1000 nM, the IC50 (BaF3-ETV6-NTRK2) was > 1000 nM and the IC50 (BaF3-ETV6-NTRK3) was > 1000 nM.
